Measurements as given in publication PMC4955727 (Molecular bioSystems, 2016).
Where two headings read alike, the source gives them in different places.

Assays:
P-gp [1] = settings: cited from earlier work
P-gp [2] = biological target: T1, P-gp (Homo sapiens, UniProt P08183); assay: Calcein-AM efflux assay in KB CH^R 8-5 cells; settings: for P-gp efflux inhibitory activity (in words): calcein-AM and rhodamine 123 assays, 10 μM (Table 4); for inhibition at 10 min, 10 μM / inhibition at 10 µM: human, KB CH^R 8-5 cells; for Calcein-AM Efflux % inhibition: 10 μM compound, 0.5 μM calcein-AM, 10 min, 37 °C; for inhibition at 10 µM: probe calcein-AM (0.5 μg/ml) and rhodamine 123 (0.5 μg/ml)
T1 sequence (P08183 whole entry): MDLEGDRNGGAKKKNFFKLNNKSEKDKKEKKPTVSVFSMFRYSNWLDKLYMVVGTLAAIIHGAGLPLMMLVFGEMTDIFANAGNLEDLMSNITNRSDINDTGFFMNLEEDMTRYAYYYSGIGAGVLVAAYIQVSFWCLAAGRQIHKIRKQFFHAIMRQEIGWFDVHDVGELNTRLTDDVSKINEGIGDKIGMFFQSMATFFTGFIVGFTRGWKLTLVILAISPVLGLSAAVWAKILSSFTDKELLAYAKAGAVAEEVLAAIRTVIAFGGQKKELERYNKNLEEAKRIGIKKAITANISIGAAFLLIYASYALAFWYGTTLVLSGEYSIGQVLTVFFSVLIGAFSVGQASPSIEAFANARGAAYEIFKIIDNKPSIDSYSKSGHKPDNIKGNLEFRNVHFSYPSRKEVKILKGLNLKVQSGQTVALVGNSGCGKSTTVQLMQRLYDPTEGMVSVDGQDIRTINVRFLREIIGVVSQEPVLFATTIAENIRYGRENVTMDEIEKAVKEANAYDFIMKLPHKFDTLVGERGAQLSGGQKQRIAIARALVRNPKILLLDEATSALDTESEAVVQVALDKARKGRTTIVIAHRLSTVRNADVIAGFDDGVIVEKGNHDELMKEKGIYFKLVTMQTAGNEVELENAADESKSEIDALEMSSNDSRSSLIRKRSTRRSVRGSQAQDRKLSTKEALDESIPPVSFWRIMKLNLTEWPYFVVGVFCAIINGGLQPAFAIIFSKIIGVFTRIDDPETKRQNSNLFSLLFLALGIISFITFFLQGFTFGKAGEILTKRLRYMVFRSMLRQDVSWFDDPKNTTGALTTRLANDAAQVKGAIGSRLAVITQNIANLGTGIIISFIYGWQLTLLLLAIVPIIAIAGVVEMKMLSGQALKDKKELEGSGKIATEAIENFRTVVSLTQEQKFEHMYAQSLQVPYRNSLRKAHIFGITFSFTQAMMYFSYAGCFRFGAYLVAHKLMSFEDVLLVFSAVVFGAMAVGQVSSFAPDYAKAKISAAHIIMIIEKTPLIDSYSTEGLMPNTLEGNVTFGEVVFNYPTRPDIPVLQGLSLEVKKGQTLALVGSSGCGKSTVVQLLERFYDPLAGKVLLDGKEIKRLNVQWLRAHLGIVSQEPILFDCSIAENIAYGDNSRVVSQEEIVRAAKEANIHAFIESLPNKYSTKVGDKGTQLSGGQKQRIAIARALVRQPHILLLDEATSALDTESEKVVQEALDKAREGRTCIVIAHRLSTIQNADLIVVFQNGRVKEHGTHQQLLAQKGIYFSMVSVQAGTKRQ

P-gp [3] = biological target: T1, P-gp; assay: Rhodamine 123 efflux assay in KB CH^R 8-5 cells; settings: for inhibition at 45 min, 10 µM: human, KB CH^R 8-5 cells, probe rhodamine 123 (0.5 μg/ml); for Rh123 % inhibition: 10 μM compound, 0.5 μg/ml rhodamine 123, 45 min, 37 °C
P-gp [4] = biological target: T1, P-gp; assay: in vitro
P-gp [5] = biological target: T1, P-gp
[6] = test system: parental and P-gp overexpressing cell lines; assay: Cytotoxicity assay of quercetin and rutin alone; type: cell-based; settings: concentrations up to 10 μM, flavonoid alone
KB 3-1 cells = assay: MTT cytotoxicity of paclitaxel with or without reversal agent, parental cells; type: cell-based
KB CH^R 8-5 cells = type: cell-based
[7] = read-out: Actual IC50 (Literature) (A), ref Literature (source not given)

SMILES | IC50 (P-gp [1]; [7]) | P-gp efflux inhibitory activity (in words) (P-gp [2]) | inhibition at 10 min, 10 μM (P-gp [2]) | inhibition at 45 min, 10 µM (P-gp [3]) | further results
Oc1cc(O)c2c(c1)O[C@H](c1ccc(O)c(O)c1)[C@H](O)C2 [(-)-Epicatechin] | 0.4 µM | – | – | – | –
O=C1C[C@@H](c2ccc(O)c(O)c2)Oc2cc(O)cc(O)c21 [Eriodictyol] | 50 µM | – | – | – | –
O=c1c(O)c(-c2ccc(O)cc2)oc2cc(O)cc(O)c12 [Kaempferol] | 4.8 µM | low inhibitory activity | 33.8% | 25.1% | –
COc1cc(-c2oc3cc(O)cc(O)c3c(=O)c2O)ccc1O [Isorhamnetin] | – | – | – | – | inhibition at 10 µM (P-gp [4]): 19.5%; IC50 (P-gp [1]): 0.34 µM; P-gp efflux inhibitory activity (in words) (P-gp [5]): low inhibitory activity; Calcein-AM Efflux % inhibition (P-gp [5]; human): 23.05%
Oc1cc(O)c2c(c1)O[C@H](c1ccc(O)c(O)c1)[C@@H](O)C2 [(+)-Catechin] | 50 µM | – | – | – | –
O=C(O[C@@H]1Cc2c(O)cc(O)cc2O[C@@H]1c1cc(O)c(O)c(O)c1)c1cc(O)c(O)c(O)c1 [(-)-Epigallocatechin gallate] | 43.8 µM | – | – | – | –
COc1ccc(-c2oc3cc(O)cc(O)c3c(=O)c2O)cc1O [Tamarixetin] | 10 µM | moderate inhibitory activity | 78.7% | 77.2% | IC50 (P-gp [2]): 46 µM
Oc1ccc(-c2[o+]c3cc(O)cc(O)c3cc2O)cc1 [Pelargonidin] | 14 µM | moderate inhibitory activity | 46% | 47.2% | –
COc1ccc([C@@H]2CC(=O)c3c(O)cc(O)cc3O2)cc1O [Hesperitin] | 20 µM | – | – | – | –
Oc1ccc2c(c1)OCO2 [Sesamol] | 0.3 µM | – | – | – | –
C[C@@H]1O[C@@H](O[C@H]2[C@H](Oc3cc(O)c4c(c3)O[C@H](c3ccc(O)cc3)CC4=O)O[C@H](CO)[C@@H](O)[C@@H]2O)[C@H](O)[C@H](O)[C@H]1O [Naringin] | – | moderate inhibitory activity | 70.2% | 75.6% | –
C[C@@H]1O[C@@H](OC[C@H]2O[C@@H](Oc3c(-c4ccc(O)c(O)c4)oc4cc(O)cc(O)c4c3=O)[C@H](O)[C@@H](O)[C@@H]2O)[C@H](O)[C@H](O)[C@H]1O [Rutin, 2-(3,4-dihydroxyphenyl)-5,7-dihydroxy-3-[α-L-rhamnopyranosyl-(1→6)-β-D-glucopyranosyloxy]-4H-chromen-4-one] | – | – | – | – | cell survival [6]: > 85%
O=C1C[C@@H](c2ccc(O)cc2)Oc2cc(O)cc(O)c21 [Naringenin] | 16 µM | – | – | – | –
COc1cc(O)c2c(=O)c(-c3ccc(O)cc3)coc2c1 [Prunetin] | 6.4 µM | – | – | – | –
O=c1c(O)c(-c2cc(O)c(O)c(O)c2)oc2cc(O)cc(O)c12 [Myricetin] | 5.9 µM | moderate inhibitory activity | 57.2% | 55.8% | –
O=C1C[C@@H](c2ccccc2)Oc2cc(O)cc(O)c21 [Pinocembrin] | 5.8 µM | – | – | – | –
COc1cc(/C=C/C(=O)CC(=O)/C=C/c2ccc(O)c(OC)c2)ccc1O [Curcumin] | 1 µM | – | – | – | –
O=c1c(O)c(-c2ccc(O)c(O)c2)oc2cc(O)cc(O)c12 [Quercetin, 2-(3,4-dihydroxyphenyl)-3,5,7-trihydroxy-4H-chromen-4-one] | – | – | – | – | cell survival [6]: > 85%
O=C(O[C@@H]1Cc2c(O)cc(O)cc2O[C@@H]1c1ccc(O)c(O)c1)c1cc(O)c(O)c(O)c1 [(-)-Epicatechin 3-gallate] | 15.1 µM | – | – | – | Calcein-AM Efflux % inhibition (P-gp [2]): 83.25%; Rh123 % inhibition (P-gp [3]): 80.56%; IC50 (P-gp [5]): 33 µM; P-gp efflux inhibitory activity (in words) (P-gp [5]): moderate inhibitory activity
O=c1c(O)cc([C@H]2Oc3cc(O)cc(O)c3C[C@H]2O)cc2c([C@H]3Oc4cc(O)cc(O)c4C[C@H]3O)cc(O)c(O)c12 [Theaflavine] | 60 µM | very effective P-gp efflux inhibitory activity | 88.8% | 83.2% | IC50 (P-gp [2]): 20 µM
COc1cc(O)c2c(=O)c(OC)c(-c3ccc(OC)c(OC)c3)oc2c1 [Retusin] | 12 µM | low inhibitory activity | 6.43% | 3.06% | inhibition at 10 µM (P-gp [2]): ≤ 15%

SMILES | IC50 (P-gp [1]; [7]) | P-gp efflux inhibitory activity (in words) (P-gp [2]) | inhibition at 10 min, 10 μM (P-gp [2]) | inhibition at 45 min, 10 µM (P-gp [3]) | further results
O=c1cc(-c2ccccc2)oc2cc(O)c(O)c(O)c12 [Baicalein] | 1.5 µM | low inhibitory activity | 11% | 7.54% | inhibition at 10 µM (P-gp [2]): ≤ 15%
COc1ccc([C@@H]2CC(=O)c3c(O)cc(O[C@@H]4O[C@H](CO[C@@H]5O[C@@H](C)[C@H](O)[C@@H](O)[C@H]5O)[C@@H](O)[C@H](O)[C@H]4O)cc3O2)cc1O [Hesperidin] | 6.2 µM | low inhibitory activity | – | – | Calcein-AM Efflux % inhibition (P-gp [2]): 29.58%; Rh123 % inhibition (P-gp [3]): 21.09%
COc1cc(C2Oc3cc([C@H]4Oc5cc(O)cc(O)c5C(=O)[C@@H]4O)ccc3OC2CO)ccc1O (some centres unmarked) [Silibinin] | 3.4 µM | moderate inhibitory activity | – | – | inhibition at 10 µM (P-gp [4]): 71.4%; Calcein-AM Efflux % inhibition (P-gp [2]): 63.75%
O=c1c(O[C@@H]2O[C@H](CO)[C@@H](O)[C@H](O)[C@H]2O)c(-c2ccc(O)c(O)c2)oc2cc(O)cc(O)c12 [Isoquercitrin] | 24.3 µM | low inhibitory activity | 19.8% | 18.4% | –
CC(=O)O[C@H]1C(=O)[C@@]2(C)[C@H]([C@H](OC(=O)c3ccccc3)[C@]3(O)C[C@H](OC(=O)[C@H](O)[C@@H](NC(=O)c4ccccc4)c4ccccc4)C(C)=C1C3(C)C)[C@]1(OC(C)=O)CO[C@@H]1C[C@@H]2O [Paclitaxel] | 1.2 µM | – | – | – | IC50 (KB 3-1 cells; Homo sapiens, KB 3-1, read-out: IC50 ± SEM of paclitaxel): 0.04 ± 0.01 µM; FR (fold-resistance) (KB 3-1 cells; KB 3-1, paclitaxel alone): [1.0]; FR (fold-resistance) (KB CH^R 8-5 cells; KB Ch^R 8-5, paclitaxel alone, vs KB 3-1): [50.0]; IC50 (KB CH^R 8-5 cells; read-out: IC50 ± SEM of paclitaxel): 2 ± 0.2 µM
COc1cc(O)c2c(c1)O[C@H](c1ccccc1)CC2=O [Pinostrobin] | 5.4 µM | – | – | – | –
O=c1cc(-c2ccc(O)c(O)c2)oc2cc(O)cc(O)c12 [Luteolin] | – | low inhibitory activity | 12.6% | 11.5% | IC50 (P-gp [1]): 0.8 µM; inhibition at 10 µM (P-gp [2]): ≤ 15%
Oc1cc(O)c2c(c1)O[C@H](c1cc(O)c(O)c(O)c1)[C@H](O)C2 [Epigallocatechin] | – | – | – | – | IC50 (P-gp [1]): 118 µM
COc1cccc2c1C(=O)c1c(O)c3c(c(O)c1C2=O)C[C@@](O)(C(C)=O)C[C@@H]3O[C@H]1C[C@H](N)[C@H](O)[C@H](C)O1 [Daunorubicin, reference compound] | 1 µM | – | – | – | –
COc1cccc2c1C(=O)c1c(O)c3c(c(O)c1C2=O)C[C@@](O)(C(=O)CO)C[C@@H]3O[C@H]1C[C@H](N)[C@H](O)[C@H](C)O1 [Doxorubicin, reference compound] | 0.04 µM | – | – | – | –
Oc1cc(O)c2c(c1)O[C@H](c1cc(O)c(O)c(O)c1)[C@@H](O)C2 [Gallocatechin] | – | – | – | – | IC50 (P-gp [1]): 136 µM
O=c1c(O)c(-c2ccc(O)c(O)c2)oc2cc(O)ccc12 [Fistein, Fisetin] | 16 µM | low inhibitory activity | 16.8% | 13.1% | inhibition at 10 µM (P-gp [2]): ≤ 15%
O=c1cc(-c2ccc(O)cc2)oc2cc(O)cc(O)c12 [Apigenin] | 10 µM | low inhibitory activity | 39.5% | 35% | –
COc1cc2c(=O)c(-c3ccc(O)cc3)coc2cc1O [Glycitein] | 5.99 µM | – | – | – | –
COc1ccc(-c2cc(=O)c3c(OC)c(OC)c(OC)c(OC)c3o2)cc1 [Tangeritin] | 3 µM | low inhibitory activity | – | – | Calcein-AM Efflux % inhibition (P-gp [2]): 14.23%; inhibition in calcein-AM and rhodamine-123 assays (P-gp [2]; 10 μM concentration, both calcein-AM and rhodamine-123 assay data): ≤ 15%; Rh123 % inhibition (P-gp [3]): 12.76%
O=c1c(-c2ccc(O)cc2)coc2cc(O)cc(O)c12 [Genistein] | – | – | – | – | IC50 (P-gp [1]): 6.9 µM
O=c1c(O)c(-c2ccc(O)cc2O)oc2cc(O)cc(O)c12 [Morin] | 8.1 µM | low inhibitory activity | 42.8% | 40.5% | –
O=c1cc(-c2ccccc2)oc2cc(O)cc(O)c12 [Chrysin] | 1.5 µM | – | – | – | –
COc1cc2oc(-c3ccccc3)cc(=O)c2c(O)c1O [Negletein] | – | – | – | – | IC50 (P-gp [1]): 6.4 µM
